According to patent publication US10188605B2, “Nanoparticles and nanoparticle compositions” (priority 2010, dated 2019):
Several values for one entry are separate records, joined by “and”; a condition that tells them apart may be missing. Identical values can stand only once.

Legend:
[1] = versus camptothecin; cited from earlier work
[2] = Release of entrapped pyrene from SCMs by fluorescence (I3/I1 ratio); format: physicochemical; conditions: uncrosslinked reference
Source text: The intensity ratio between the third (˜384 nm) and the first band (˜372 nm), in particular, is sensitive to changes in the environment.

[3] = Critical micelle concentration of surfactant 1 (surface tension; pyrene I3/I1 fluorescence); format: physicochemical
Source text: Pyrene was used as a surrogate for a hydrophobic drug because of its environmentally sensitive fluorescence. […] The intensity ratio between the third (˜384 nm) and the first band (˜372 nm), in particular, is sensitive to changes in the environment. […] The CMC of the surfactant is about 1.4×10^−4 M according to surface tension measurement and 1.5×10^−4 M, according to FIG. 15.

[4] = in water at 20° C.; cited from earlier work

CC[C@@](O)(C(=O)[O-])c1cc2n(c(=O)c1CO)Cc1cc3ccccc3nc1-2.[Na+] [CAM-Na]
biological activity relative to the parent drug [1]: one-tenth

C#CC[N+](CC#C)(CC#C)Cc1ccc(OCCCCCCCCCCCC)cc1.[Br-] [Compound 1, 4-(Dodecyloxy)benzyltripropargylammonium bromide]
pyrene I3/I1 in uncrosslinked surfactant below the CMC [2]: 0.70 | critical micelle concentration ([3]; in water): 150 µM and 140 µM | CMC according to pyrene I3/I1 ratio (FIG. 15) ([3]; pyrene fluorescence): 150 µM | CMC according to surface tension measurement ([3]; surface tension): about 1.4×10^−4 M

CCCCCCCCCCCC[N+](C)(C)C.[Br-] [Dodecyltrimethyl ammonium bromide]
micellar aggregation number [4]: 55
